Read-outs that look alike come from different tables or passages of the source.
Target: T1, mutant B-RAF (Homo sapiens, UniProt P15056, V600E)
T1 construct: purchased Upstate (Charlottesville, Va.)
Assay: RAF biochemical assay (MEK-1 phosphorylation, anti-phospho MEK1/2 detection)
Conditions: for inhibition at 10 µM: read-out: Mutant B-RAF % inhibition
In short: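 Detection is by ELISA: after a 30 min room-temperature reaction, plate-captured GST-MEK-1 is probed with anti-phospho MEK1/2, then an AP-tagged secondary antibody with fluorescent Attophos read-out.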

T1 sequence (P15056 whole entry V600E): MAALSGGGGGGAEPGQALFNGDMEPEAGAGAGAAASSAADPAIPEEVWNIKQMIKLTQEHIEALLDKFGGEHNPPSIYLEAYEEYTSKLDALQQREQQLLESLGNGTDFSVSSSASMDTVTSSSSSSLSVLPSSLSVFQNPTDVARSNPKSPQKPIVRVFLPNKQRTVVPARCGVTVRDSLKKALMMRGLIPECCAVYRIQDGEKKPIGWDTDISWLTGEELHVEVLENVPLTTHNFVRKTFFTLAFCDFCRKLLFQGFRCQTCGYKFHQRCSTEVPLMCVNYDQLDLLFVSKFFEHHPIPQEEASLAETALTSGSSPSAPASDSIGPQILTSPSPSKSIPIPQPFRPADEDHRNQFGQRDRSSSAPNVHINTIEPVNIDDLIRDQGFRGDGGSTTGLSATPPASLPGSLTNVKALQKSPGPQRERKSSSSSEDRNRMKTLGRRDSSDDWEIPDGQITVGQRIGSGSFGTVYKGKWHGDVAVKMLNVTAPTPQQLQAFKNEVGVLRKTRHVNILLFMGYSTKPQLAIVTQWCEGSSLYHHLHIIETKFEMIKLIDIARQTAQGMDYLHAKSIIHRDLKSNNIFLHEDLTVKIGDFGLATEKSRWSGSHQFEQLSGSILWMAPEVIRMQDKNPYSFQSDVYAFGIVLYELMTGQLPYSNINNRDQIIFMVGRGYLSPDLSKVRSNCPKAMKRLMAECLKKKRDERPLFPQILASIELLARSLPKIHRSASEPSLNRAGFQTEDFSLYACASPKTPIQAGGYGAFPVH

Compound | IC50 (read-out: Mutant B-RAF IC50) [nM] | inhibition at 10 µM [%] | other results
CS(=O)(=O)Nc1cccc(-c2nc3sccn3c2-c2ccnc(N[C@@H]3CCCN(S(=O)(=O)c4ccc(Cl)cc4)C3)n2)c1 [Example 346, N-(3-{5-[2-({(3R)-1-[(4-chlorophenyl)sulfonyl]piperidin-3-yl}amino)pyrimidin-4-yl]imidazo[2,1-b][1,3]thiazol-6-yl}phenyl)methanesulfonamide] | 880 | – | –
O=S(=O)(c1ccsc1)N1CCC[C@@H](Nc2nccc(-c3c(-c4cccc(O)c4)nc4occn34)n2)C1 [Example 399, 3-[5-(2-{[(3R)-1-(3-thienylsulfonyl)piperidin-3-yl]amino}pyrimidin-4-yl)imidazo[2,1-b][1,3]oxazol-6-yl]phenol] | – | – | IC50 (read-out: Mutant B-RAF IC50 (uM) or % inhibition): > 3000 nM
Cc1cn2c(-c3ccnc(N[C@@H]4CCCNC4)n3)c(-c3ccc(F)cc3)nc2s1 [Example 79, 4-[6-(4-fluorophenyl)-2-methylimidazo[2,1-b][1,3]thiazol-5-yl]-N-((3R)-piper-idin-3-yl]pyrimidin-2-amine] | – | 67 | –
CC(C)(N)C(=O)N1CCC[C@@H](Nc2nccc(-c3c(-c4ccc(F)cc4)nc4occn34)n2)C1 [Example 36, N-[(3R)-1-(2-amino-2-methylpropanoyl)piperidin-3-yl]-4-[6-(4-fluorophenyl)imi-dazo[2,1-b][1,3]oxazol-5-yl]pyrimidin-2-amine] | – | – | IC50: 4520 nM
Clc1ccccc1-c1nc2occn2c1-c1ccnc(NC2CCNCC2)n1 [Example 307, 4-[6-(2-chlorophenyl)imidazo[2,1-b][1,3]oxazol-5-yl]-N-piperidin-4-ylpyrimidin-2-amine] | – | 55 | –
O=C(NCc1ccccc1)N1CCC[C@@H](Nc2nccc(-c3c(-c4ccc(F)c(F)c4)nc4sccn34)n2)C1 [Example 87, (3R)-N-benzyl-3-({4-[6-(3,4-difluorophenyl)imidazo[2,1-b][1,3]thiazol-5-yl]pyrimidin-2-yl}amino)piperidine-1-carboxamide] | – | 53 | –
COc1cccc(-c2nc3sccn3c2-c2ccnc(N[C@@H]3CCCN(C(=O)NCc4ccccc4)C3)n2)c1 [Example 80, (3R)-N-benzyl-3-({4-[6-(3-methoxyphenyl)imidazo[2,1-b][1,3]thiazol-5-yl]pyrimidin-2-yl}amino)piperidine-1-carboxamide] | – | 40 | –
Fc1ccc(-c2nc3sccn3c2-c2ccnc(NC3CCNCC3)n2)cc1F [Example 223, 4-[6-(3,4-difluorophenyl)imidazo[2,1-b][1,3]thiazol-5-yl]-N-piperidin-4-ylpyrimidin-2-amine] | – | 71 | –
CCNC(=O)N1CCC(Nc2nccc(-c3c(-c4ccc(F)cc4)nc4sc(C)cn34)n2)CC1 [Example 220, N-ethyl-4-({4-[6-(4-fluorophenyl)-2-methylimidazo[2,1-b][1,3]thiazol-5-yl]pyrimidin-2-yl}amino)piperidine-1-carboxamide] | 428 | – | –
CCCS(=O)(=O)N1CCC[C@@H](Nc2nccc(-c3c(-c4cccc(O)c4)nc4occn34)n2)C1 [Example 393, 3-[5-(2-{[(3R)-1-(propylsulfonyl)piperidin-3-yl]amino}pyrimidin-4-yl)imidazo[2,1-b][1,3]oxazol-6-yl]phenol] | 330 | – | –
CS(=O)(=O)N1CCC(Nc2nccc(-c3c(-c4cccc(O)c4)nc4occn34)n2)CC1 [Example 342, 3-[5-(2-{[1-(methylsulfonyl)piperidin-4-yl]amino}pyrimidin-4-yl)imidazo[2,1-b][1,3]oxazol-6-yl]phenol] | 258 | – | –
O=S(=O)(c1ccc(OC(F)(F)F)cc1)N1CCC(Nc2nccc(-c3c(-c4ccc(F)cc4)nc4occn34)n2)CC1 [Example 203, 4-[6-(4-fluorophenyl)imidazo[2,1-b][1,3]oxazol-5-yl]-N-(1-{[4-(trifluoromethoxy)phenyl]sulfonyl}piperidin-4-yl)pyrimidin-2-amine] | 521 | – | –
O=C(c1ccncc1)N1CCC[C@@H](Nc2nccc(-c3c(-c4ccc(F)cc4)nc4occn34)n2)C1 [Example 32, 4-[6-(4-fluorophenyl)imi-dazo[2,1-b][1,3]oxazol-5-yl]-N-[(3R)-1-isonicotinoylpiper-idin-3-yl]pyrimidin-2-amine] | – | – | IC50: 362 nM
COCC(=O)N1CCC[C@@H](Nc2nccc(-c3c(-c4ccc(F)cc4)nc4occn34)n2)C1 [Example 30, 4-[6-(4-fluorophenyl)imi-dazo[2,1-b][1,3]oxazol-5-yl]-N-[(3R)-1-(methoxyacetyl)piperidin-3-yl]pyrimidin-2-amine] | – | – | IC50: 711 nM

More lines, main results first:

IC50 (read-out: Mutant B-RAF IC50) [nM] | inhibition at 10 µM [%] | Compound | other results
541 | – | O=S(=O)(c1ccc(F)c(Cl)c1)N1CCC(Nc2nccc(-c3c(-c4ccc(F)cc4)nc4occn34)n2)CC1 [Example 204, N-{1-[(3-chloro-4-fluorophenyl)sulfonyl]piperidin-4-yl}-4-[-6-(4-fluorophenyl)imidazo[2,1-b][1,3]oxazol-5-yl]pyrimidin-2-amine] | –
2530 | – | Cc1cn2c(-c3ccnc(NC4CCN(C(=O)NCc5ccccc5)CC4)n3)c(-c3ccc(F)cc3)nc2s1 [Example 241, N-benzyl-4-({4-[6-(4-fluorophenyl)-2-methylimidazo[2,1-b][1,3]thiazol-5-yl]pyrimidin-2-yl}amino)piperidine-1-carboxamide] | –
– | 10 | O=C(Nc1ccccc1F)N1CCC(Nc2nccc(-c3c(-c4ccc(F)cc4)nc4occn34)n2)CC1 [Example 187, N-(2-fluorophenyl)-4-({4-[6-(4-fluorophenyl)imidazo[2,1-b][1,3]oxazol-5-yl]pyrimidin-2-yl}amino)piperidine-1-carboxamide] | –
– | 29 | CC(=O)NCC(=O)N1CCC(Nc2nccc(-c3c(-c4ccc(F)cc4)nc4occn34)n2)CC1 [Example 211, N-{2-[4-({4-[6-(4-fluorophenyl)imidazo[2,1-b][1,3]oxazol-5-yl]pyrimidin-2-yl}amino)piperidin-1-yl]-2-oxoethyl}acetamide] | –
28 | – | N#Cc1ccc(S(=O)(=O)N2CCC[C@@H](Nc3nccc(-c4c(-c5cccc(O)c5)nc5sccn45)n3)C2)cc1 [Example 111, 4-{[(3R)-3-({4-[6-(3-hydroxyphenyl)imidazo[2,1-b][1,3]thiazol-5-yl]pyrimidin-2-yl}amino)piperidin-1-yl]sulfonyl}benzonitrile] | –
– | 76 | O=C(c1ccco1)N1CCC(Nc2nccc(-c3c(-c4ccc(F)cc4)nc4occn34)n2)CC1 [Example 166, 4-[6-(4-fluorophenyl)imidazo[2,1-b][1,3]oxazol-5-yl]-N-[1-(2-furoyl)piperidin-4-yl]pyrimidin-2-amine] | –
0.03 | – | O=S(=O)(C1CC1)N1CCC(Nc2nccc(-c3c(-c4ccc(F)c(O)c4)nc4sccn34)n2)CC1 [Example 354, 5-[5-(2-{[1-(cyclopropylsulfonyl)piperidin-4-yl]amino}pyrimidin-4-yl)imidazo[2,1-b][1,3]thiazol-6-yl]-2-fluorophenol] | –
2450 | – | CSc1ccc(NC(=O)N2CCC[C@@H](Nc3nccc(-c4c(-c5cccc(O)c5)nc5sccn45)n3)C2)cc1 [Example 344, (3R)-3-({4-[6-(3-hydroxyphenyl)imidazo[2,1-b][1,3]thiazol-5-yl]pyrimidin-2-yl}amino)-N-[4-(methylthio)phenyl]piperidine-1-carboxamide] | –
19 | – | O=S(=O)(c1cccc(O)c1)N1CCC[C@@H](Nc2nccc(-c3c(-c4cccc(O)c4)nc4sccn34)n2)C1 [Example 143, 3-{[(3R)-3-({4-[6-(3-hydroxyphenyl)imidazo[2,1-b][1,3]thiazol-5-yl]pyrimidin-2-yl}amino)piperidin-1-yl]sulfonyl}phenol] | –
– | 30 | Cc1ccccc1S(=O)(=O)N1CCC(Nc2nccc(-c3c(-c4ccc(F)cc4)nc4occn34)n2)CC1 [Example 235, 4-[6-(4-fluorophenyl)imidazo[2,1-b][1,3]oxazol-5-yl]-N-{1-[(2-methylphenyl)sulfonyl]piperidin-4-yl}pyrimidin-2-amine] | –
– | 45 | Cc1ccccc1-c1nc2occn2c1-c1ccnc(NC2CCN(S(C)(=O)=O)CC2)n1 [Example 308, 4-[6-(2-methylphenyl)imidazo[2,1-b][1,3]oxazol-5-yl]-N-(1-(methylsulfonyl)piperidin-4-yl]pyrimidin-2-amine] | –
– | 16 | Cc1cc(NC(=O)N2CCC(Nc3nccc(-c4c(-c5ccc(F)cc5)nc5occn45)n3)CC2)c(C(F)(F)F)o1 [Example 186, 4-({4-[6-(4-fluorophenyl)imidazo[2,1-b][1,3]oxazol-5-yl]pyrimidin-2-yl}amino)-N-[5-methyl-2-(trifluoromethyl)-3-furyl]piperidine-1-carboxamide] | –
– | 41 | CC(=O)N1CCC(Nc2nccc(-c3c(-c4ccc(F)cc4)nc4sccn34)n2)CC1 [Example 291, N-(1-acetylpiperidin-4-yl)-4-[6-(4-fluorophenyl)imidazo[2,1-b][1,3]thiazol-5-yl]pyrimidin-2-amine] | –
477 | – | CN(C)c1ccc(C(=O)N2CCC[C@@H](Nc3nccc(-c4c(-c5ccc(F)cc5)nc5occn45)n3)C2)cc1 [Example 39, N-{(3R)-1-[4-(dimethyl-amino)benzoyl]piperidin-3-yl}-4-[6-(4-fluorophenyl)imidazo[2,1-b][1,3]oxazol-5-yl]pyrimidin-2-amine] | –
– | 37 | COc1cccc(-c2nc3sccn3c2-c2ccnc(N[C@@H]3CCN(S(=O)(=O)c4ccc(Cl)cc4)C3)n2)c1 [Example 280, N-{(3R)-1-[(4-chlorophenyl)sulfonyl]pyrro-lidin-3-yl}-4-[6-(3-methoxyphenyl)imidazo[2,1-b][1,3]thiazol-5-yl]pyrimidin-2-amine] | –
2930 | – | COc1cccc(-c2nc3sccn3c2-c2ccnc(NC3CCNCC3)n2)c1 [Example 208, 4-[6-(3-methoxyphenyl)imidazo[2,1-b][1,3]thiazol-5-yl]-N-piperidin-4-ylpyrimidin-2-amine] | –
1 | – | Cn1ccc(S(=O)(=O)N2CCC[C@@H](Nc3nccc(-c4c(-c5cccc(O)c5)nc5sccn45)n3)C2)n1 [Example 376, 3-{5-[2-({(3R)-1-[(1-methyl-1H-pyrazol-3-yl)sulfonyl]piperidin-3-yl}amino)pyrimidin-4-yl]imidazo[2,1-b][1,3]thiazol-6-yl}phenol] | –

From patent publication US7501430B2 (ArQule, Inc., priority 2006, dated 2009)
